Experiment [1] deals with camptothecin-resistant CPT-K5 cells. Kind of experiment: MTT-microtiter plate tetrazolinium cytotoxicity assay (MTA), CPT-K5. It counts as cell-based, human. The following applies: Homo sapiens, CPT-K5, 96 h, read-out: Cytotoxicity IC50, CPT-K5. Here is the method: (§1) The IC50 of the drugs tested were determined by the MTT-microtiter plate tetrazolinium cytotoxicity assay (MTA) (Mosmann, T., J. Immunol. Methods 65:55-63 (1983); Denizot et al., J. Immunol. Methods 89:271-277 (1986)). Human lymphoblast RPMI 8402 cells and their camptothecin-resistant CPT-K5 cells (Andoh et al., Proc. Natl. Acad. Sci., USA 84:5565-5569 (1987)) were kindly provided by Dr. Toshiwo Andoh (Aichi Cancer Center Research Institute, Nagoya, Japan). The cell lines A2780 and its camptothecin-resistant derivative CPT-2000 were a generous gift of Dr. Jaulang Hwang (Institute of Molecular Biology, Academia sinica, Taiwan). Cells (2000 cells/well, seeded in […] growth medium) were grown in suspension at 37° C. in 5% CO2 and maintained by regular passage in RPMI medium supplemented with 10% heat inactivated fetal bovine serum, L-glutamine (2 mM), penicillin (100 U/mi), and streptomycin (0.1 mg/ml). The cells were exposed continuously for 4 days to drug concentrations ranging from 100 ug/ml to 1.0 ng/ml in ten fold dilutions, and assayed at the end of the fourth day. Each concentration and the no drug control were repeated at least twice in 6 replica wells. The results were plotted and the IC50 then measured. The drug sensitive human epidermoid carcinoma KB 3-1 cell line and its vinblastine-selected multidrug-resistant variant KB-V1 cells (Akiyama et al., Genetics 11:117-126 (1985)) were kindly provided by Dr. Michael Gottesmann (National Cancer Institute). They were grown as monolayer cultures at 37° C. in 5% CO2 and maintained by regular passage in Dulbecco's minimal essential medium supplemented with 10% heat inactivated fetal bovine serum. KB-V1 cells were maintained in the presence of […] vinblastine.

The test system of experiment [2] is Human lymphoblast RPMI 8402 cells. Kind of experiment: MTT-microtiter plate tetrazolinium cytotoxicity assay (MTA), RPMI 8402. It counts as cell-based. The following applies: Homo sapiens, RPMI 8402, 96 h, read-out: Cytotoxicity IC50, RPMI. On the procedure:
as §1

The target in experiment [3] is T1, human topoisomerase I (Homo sapiens, UniProt P11387).
T1 construct: 15 amino acid fusion from pET-11a vector (N); made in house; host or cells: E. coli BL21(DE3)
T1 sequence (P11387 1-765): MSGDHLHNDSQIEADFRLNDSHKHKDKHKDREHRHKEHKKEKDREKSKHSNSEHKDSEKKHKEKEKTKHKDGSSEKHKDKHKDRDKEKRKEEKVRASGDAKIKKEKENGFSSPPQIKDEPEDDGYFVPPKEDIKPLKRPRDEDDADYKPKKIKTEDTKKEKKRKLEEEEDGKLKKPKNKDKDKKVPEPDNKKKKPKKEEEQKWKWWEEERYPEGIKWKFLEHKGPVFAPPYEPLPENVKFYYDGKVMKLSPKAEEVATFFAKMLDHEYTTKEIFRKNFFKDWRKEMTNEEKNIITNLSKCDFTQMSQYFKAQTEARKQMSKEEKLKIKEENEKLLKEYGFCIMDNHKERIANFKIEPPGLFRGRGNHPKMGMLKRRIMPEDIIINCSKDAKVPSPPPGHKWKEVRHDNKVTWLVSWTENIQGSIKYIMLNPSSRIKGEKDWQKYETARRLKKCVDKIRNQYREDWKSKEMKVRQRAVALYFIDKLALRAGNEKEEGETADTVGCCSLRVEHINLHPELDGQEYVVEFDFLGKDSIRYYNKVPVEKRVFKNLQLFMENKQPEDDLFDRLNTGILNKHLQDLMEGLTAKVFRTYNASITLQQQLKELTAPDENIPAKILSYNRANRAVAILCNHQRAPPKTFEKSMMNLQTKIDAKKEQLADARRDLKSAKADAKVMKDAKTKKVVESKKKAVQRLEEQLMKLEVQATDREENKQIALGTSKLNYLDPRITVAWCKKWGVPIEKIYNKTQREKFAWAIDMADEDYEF
The experiment is described as follows: Topo I-mediated DNA cleavage assay. The settings on record: for Topo I-mediated DNA cleavage (REC, Relative Effective Concentration): concentration relative to camptothecin (CPT = 1) producing the same cleavage on plasmid DNA in the presence of human topoisomerase I. It counts as biochemical. The text has this: To obtain large quantity of human topoisomerase I, the human topoisomerase I cDNA was cloned into the pET-11a vector, in which transcription of the cDNA is under the control of the inducible T7 promoter (Studier et al., Methods in Enzymol., Vol. 185:60-89, San Diego: Academic Press (1990)). Briefly, a 3.4 kb DNA fragment containing the entire coding sequence of human topoisomerase I and approximately 1 kb of untranslated region downstream of the stop codon was isolated from the plasmid YCpGAL1-hTOP1 (Bjornsti et al., Cancer Res. 49:6318-6323 (1989)) by cutting at the BamHI and EcoRI sites. The vector pET-11a was cut with the same restriction enzymes, dephosphorylated and ligated to the insert in the proper reading frame downstream of the vector cloning site. […] Since the translational start in pET is positioned at an upstream NdeI site, the expressed topoisomerase I has a 15 amino acid fusion at its N-terminus. pET1B was then transformed into E. coli BL21 (DE3), and, upon induction with 0.4 mM IPTG for 1 hour, the bacterial lysate was analyzed by 10% SDS-PAGE. […] Briefly, E. coli cells were lysed by repeated sonic bursts. The sonic extract was made in 1 M NaCl and 6% polyethylene glycol (PEG) to remove nucleic acids. The PEG supernatant was chromatographed directly on a hydroxyapatite column. […] The eluted enzyme was dialyzed against 50% glycerol, 30 mM potassium phosphate (pH 7.0), 1 mM dithiothreitol (DTT) and 0.1 mM EDTA and stored at -20° C.
(§2) Cleavage assays for the recombinant topoisomerases I and calf thymus topoisomerases I and II were done as described (Liu et al., J. Biol. Chem. 258:15365-15370 (1983)). The plasmid YEpG DNA used for the cleavage assays was prepared and labeled at its 3'-end using the published procedures.

Experiment [4] addresses T2, calf thymus topoisomerase II (Bos taurus, UniProt F1MDU7).
T2 construct: from tissue; host or cells: calf thymus glands
The experiment is described as follows: Topo II-mediated DNA cleavage assay. The settings on record: concentration relative to VM26 (= 1) producing the same cleavage on plasmid DNA in the presence of calf thymus topoisomerase II. It counts as biochemical.
Description: The plasmid pET11a and the E. coli strain BL21(DE3) used for enzyme expression were purchased from Novagen. IPTG was purchased from Sigma. The ECL system used for the Western blotting analysis of bacterial lysates was from Amersham (UK). All the restriction enzymes and Vent polymerase were from New England Biolabs. Mammalian topoisomerase II was isolated from calf thymus glands according to the published procedure (Halligan et al., J. Biol. Chem. 260:2475-2482 (1985)). The single copy yeast plasmids YCpGAL1 expressing various topoisomerase I genes in JN2-134 yeast strain were a kind gift of Dr. M-A. Bjornsti (Thomas Jefferson University, Philadelphia, Pa.). All bacterial and yeast media were from Difco (Detroit, Mich.), while cell culture media were purchased from Gibco-BRL (Gaithersburg, Md.).
as §2

T2 sequence (F1MDU7 1-1532): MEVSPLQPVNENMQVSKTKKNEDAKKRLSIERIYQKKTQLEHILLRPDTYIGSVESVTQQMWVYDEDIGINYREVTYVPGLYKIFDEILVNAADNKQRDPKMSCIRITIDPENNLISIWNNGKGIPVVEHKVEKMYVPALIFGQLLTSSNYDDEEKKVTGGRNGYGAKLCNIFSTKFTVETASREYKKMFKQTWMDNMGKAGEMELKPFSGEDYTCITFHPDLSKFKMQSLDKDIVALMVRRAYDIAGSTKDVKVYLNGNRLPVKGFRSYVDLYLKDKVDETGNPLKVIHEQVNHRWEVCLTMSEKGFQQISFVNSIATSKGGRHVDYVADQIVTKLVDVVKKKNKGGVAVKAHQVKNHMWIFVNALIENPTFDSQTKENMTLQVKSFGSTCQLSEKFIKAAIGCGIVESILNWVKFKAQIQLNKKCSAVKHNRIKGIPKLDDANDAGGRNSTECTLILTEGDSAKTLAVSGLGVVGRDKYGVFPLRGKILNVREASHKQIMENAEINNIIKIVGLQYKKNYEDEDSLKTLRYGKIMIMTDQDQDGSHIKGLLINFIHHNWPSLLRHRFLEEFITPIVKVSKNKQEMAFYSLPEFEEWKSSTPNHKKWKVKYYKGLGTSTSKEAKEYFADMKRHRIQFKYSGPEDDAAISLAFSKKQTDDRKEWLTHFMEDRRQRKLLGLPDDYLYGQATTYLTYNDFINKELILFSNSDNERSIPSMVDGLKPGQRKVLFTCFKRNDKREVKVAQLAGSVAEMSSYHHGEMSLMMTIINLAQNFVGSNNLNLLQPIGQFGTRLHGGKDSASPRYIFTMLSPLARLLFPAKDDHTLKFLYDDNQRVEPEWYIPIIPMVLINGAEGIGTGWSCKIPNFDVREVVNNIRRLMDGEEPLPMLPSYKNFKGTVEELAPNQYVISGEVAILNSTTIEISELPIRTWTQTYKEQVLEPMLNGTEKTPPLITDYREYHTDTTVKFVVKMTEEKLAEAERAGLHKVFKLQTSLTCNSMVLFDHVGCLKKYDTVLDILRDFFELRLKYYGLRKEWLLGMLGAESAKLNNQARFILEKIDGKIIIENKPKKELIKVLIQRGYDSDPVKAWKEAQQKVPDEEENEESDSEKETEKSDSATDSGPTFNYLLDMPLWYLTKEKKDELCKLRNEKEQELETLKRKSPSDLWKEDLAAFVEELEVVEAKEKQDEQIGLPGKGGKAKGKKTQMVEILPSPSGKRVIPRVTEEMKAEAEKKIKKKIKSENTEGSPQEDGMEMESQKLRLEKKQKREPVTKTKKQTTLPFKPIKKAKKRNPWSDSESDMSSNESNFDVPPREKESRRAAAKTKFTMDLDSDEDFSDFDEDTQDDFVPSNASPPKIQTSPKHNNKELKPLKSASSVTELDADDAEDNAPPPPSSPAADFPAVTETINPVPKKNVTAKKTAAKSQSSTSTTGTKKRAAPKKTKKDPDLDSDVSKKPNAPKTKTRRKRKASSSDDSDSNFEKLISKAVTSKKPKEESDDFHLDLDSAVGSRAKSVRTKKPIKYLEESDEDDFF

Turning to `CC[C@@]1(O)C(=O)OCc2c1cc1n(c2=O)Cc2cc3ccccc3nc2-1` [CPT, Camptothecin, reference compound], the IC50 – broadly, the concentration at which inhibition is half-maximal – in experiment [1] is > 10 µM; in experiment [2] it was 0.004 µM. Also, in experiment [3], the “Topo I-mediated DNA cleavage (REC, Relative Effective Concentration)” value stood at 1. Further, the “Topo II-mediated DNA cleavage (REC, Relative Effective Concentration)” value in experiment [4] is on record as > 1000.
Taken in the same sequence, the figures for `COc1cc2c(cc1OC)-c1c(c(C)c3cc(OC)c(OC)cc3[n+]1C)CC2` [Compound 8, 2,3,9,10-Tetramethoxy-7,1 2-dimethyl-5,6-dihydrobenz[c]acridinium methosulfate] were 12.2 µM, 6.1 µM, > 1000 and > 1000.
Taken in the same sequence, the figures for `COc1cc2ccc3c(C)c4cc(OC)c(OC)cc4[n+](C)c3c2cc1OC` [Compound 9, 2,3,9,10-Tetramethoxy-7,1 2-dimethylbenz [c]acridinium methosulfate] were 1.2 µM, 1.2 µM, > 1000 and > 1000.
On to `COc1cc2cc3c(nc2cc1OC)CCc1c-3ccc2c1OCO2` [Compound 13e, 5,6-Dihydro-9,10-dimethoxy-3,4-methylenedioxybenz[a]acridine], for which the IC50 in experiment [1] was 22.4 µM; in experiment [2], 3 µM. Besides, the “Topo I-mediated DNA cleavage (REC, Relative Effective Concentration)” value in experiment [3] turned out to be 1.0. In experiment [3] (summary statement), the “topoisomerase I poisoning (in words)” value was “potent topoisomerase I poisions”. Further, the “Topo II-mediated DNA cleavage (REC, Relative Effective Concentration)” value in experiment [4] was > 1000.
For `COc1cc2cc3c(nc2cc1OC)CCc1c-3ccc(OC)c1OC` [Compound 13f, 5,6-Dihydro-3,4,9,10-tetramethoxybenz[a]acridine], the IC50 in experiment [1] and in experiment [2] was 14.2 µM in each case. The “Topo I-mediated DNA cleavage (REC, Relative Effective Concentration)” value in experiment [3] was found to be 100. Further, in experiment [4], the “Topo II-mediated DNA cleavage (REC, Relative Effective Concentration)” value is > 1000.
Regarding `COc1cc2ccc3c(C)c4cc(OC)c(OC)cc4nc3c2cc1OC` [Compound 7, 2,3,9,10-Tetramethoxy-7-methylbenz[c]acridine], the figures for the IC50 in experiment [1] and in experiment [2] were 5.5 µM and 7 µM, respectively. Further, in experiment [3], the “Topo I-mediated DNA cleavage (REC, Relative Effective Concentration)” value was > 1000. The “Topo II-mediated DNA cleavage (REC, Relative Effective Concentration)” value in experiment [4] is given as > 1000.
For `Oc1cc2cc3c(ccc4cc(O)c(O)cc43)nc2cc1O` [Compound 14g, 2,3,9,10-tetrahydroxybenz[a]acridine], the values for the IC50 in experiment [1] and in experiment [2] were > 34 µM and 17.1 µM, respectively. In addition, the “Topo I-mediated DNA cleavage (REC, Relative Effective Concentration)” value in experiment [3] is on record as 100. Besides, the “Topo II-mediated DNA cleavage (REC, Relative Effective Concentration)” value in experiment [4] is listed as > 1000.
For `COc1cc2c(cc1OC)-c1nc3cc(OC)c(OC)cc3c(C)c1CC2` [Compound 6, 2,3,9,10-Tetramethoxy-7-methyl-5,6-dihydrobenz[c]acridine], in that order: > 137 µM, > 137 µM, > 1000 and > 1000.
On to `COc1cc2cc3c(nc2cc1OC)CCc1ccc(N)cc1-3` [Compound 20, 2-Amino-9,10-dimethoxy-5,6-dihydrobenz[a]acridine], for which the IC50 was > 33 µM in experiment [1] and 16.3 µM in experiment [2]. In experiment [3], the “Topo I-mediated DNA cleavage (REC, Relative Effective Concentration)” value worked out at 100. In addition, the “Topo II-mediated DNA cleavage (REC, Relative Effective Concentration)” value in experiment [4] is recorded as > 1000.
Consider `COc1cc2c(cc1OC)-c1cc3cc(OC)c(OC)cc3nc1CC2` [Compound 13a, 2,3,9,10-Tetramethoxy-5,6-dihydrobenz[a]acridine], for which the concentration for half-maximal inhibition (IC50) in experiment [1] and in experiment [2] was 7.1 µM in each case. For the same molecule, in experiment [3], the “Topo I-mediated DNA cleavage (REC, Relative Effective Concentration)” value stood at 100. The “Topo II-mediated DNA cleavage (REC, Relative Effective Concentration)” value in experiment [4] is > 1000.
For the molecule `COc1cc2c(cc1OC)-c1cc3cc(OC)c(OC)cc3[n+](C)c1CC2` [Compound 15a, 2,3,9,10-Tetramethoxy-7-methyl-5,6-dihydrobenz[a]acridinium methosulfate], the IC50 in experiment [1] and in experiment [2] was > 24 µM in each case. The “Topo I-mediated DNA cleavage (REC, Relative Effective Concentration)” value in experiment [3] was 100. Moreover, the “Topo II-mediated DNA cleavage (REC, Relative Effective Concentration)” value in experiment [4] was > 1000.

These data come from patent publication US5981541A, “Substituted heterocycles as anti-tumor agents” (Rutgers, The State University of New Jersey, priority 1997, dated 1999).
